Data as given in patent US8263622B2, “Fused-ring derivative and medical application of same” (Kissei Pharmaceutical Co., Ltd., priority 2008, dated 2012).

What was measured:
[1] = biological target: T1, Xanthine oxidase (from bovine milk, Sigma) (Bos taurus, UniProt P80457); test: Xanthine oxidase inhibitory activity; type: biochemical; conditions: xanthine substrate, absorbance at 290 nm, 10 minutes at room temperature
T1 construct: Xanthine oxidase (from bovine milk, Sigma); purchased Sigma; host or cells: bovine milk
Experimental: (1) Preparation of Test Compounds
Test compounds were dissolved in DMSO (Wako) at 40 mM concentration and then diluted to intended concentrations with phosphate-buffered saline (PBS).
(2) Method for Measurement
Xanthine oxidase (from bovine milk, Sigma) was prepared with phosphate-buffered saline (PBS) at 0.02 units/mL, and then the solution was added to 96 well plates at 50 μL/well. In addition, test compounds diluted with PBS were added at 50 μL/well. Xanthine (Wako) at 200 μM prepared with PBS was added at 100 μL/well, and the reaction was measured for 10 minutes at room temperature. Absorbance at 290 nm was measured using a microplate reader SpectraMax Plus 384 (Molecular device). The absorbance under a condition without xanthine is 0%, and control without test compounds is 100%. Fifty % inhibitory concentration (IC50) of test compounds was calculated (Table 11). Ex. No. in the table indicates example number.

human URAT1 = biological target: T2, human URAT1 (Homo sapiens, UniProt Q96S37); test: Inhibitory activity of uric acid transport with human URAT1 expressing cells; type: cell-based; conditions: COS-7; concentration of 100 μM; 14C-uric acid uptake (20 μM) in COS7 cells transiently expressing human URAT1, 5 minutes, 37° C.; read-out: Percent inhibition
T2 construct: expressed in transfected cells; host or cells: COS7 cells (RIKEN CELL BANK RCB0539), transient, pcDNA3.1
T2 sequence (Q96S37 1-553): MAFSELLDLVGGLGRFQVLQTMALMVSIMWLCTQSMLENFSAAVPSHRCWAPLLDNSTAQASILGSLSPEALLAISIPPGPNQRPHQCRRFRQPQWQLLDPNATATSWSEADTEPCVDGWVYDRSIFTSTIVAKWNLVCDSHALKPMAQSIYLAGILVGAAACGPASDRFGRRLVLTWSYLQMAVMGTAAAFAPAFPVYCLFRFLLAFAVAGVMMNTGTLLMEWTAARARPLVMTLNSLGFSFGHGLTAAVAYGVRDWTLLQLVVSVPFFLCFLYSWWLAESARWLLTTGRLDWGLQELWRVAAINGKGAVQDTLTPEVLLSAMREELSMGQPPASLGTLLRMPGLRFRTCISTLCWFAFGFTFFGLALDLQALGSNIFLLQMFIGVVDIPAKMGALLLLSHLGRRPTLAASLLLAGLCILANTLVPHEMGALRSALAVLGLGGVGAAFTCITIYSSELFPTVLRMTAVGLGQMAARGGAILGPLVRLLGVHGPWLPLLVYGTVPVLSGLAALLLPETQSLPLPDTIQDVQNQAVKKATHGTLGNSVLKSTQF
Experimental: (1) Preparation of Transiently Human URAT1 Expressing Cells
Full length human URAT1 cDNA (NCBI Accession No. NM_144585) was subcloned into expression vector, pcDNA3.1 (Invitrogen). Human URAT1 expression vector was transfected into COS7 cells (RIKEN CELL BANK RCB0539) using Lipofectamine 2000 (Invitrogen). COS7 cells were seeded in collagen-coated 24 well plates (Japan Becton Dickinson) at 90-95% confluency and cultured in D-MEM culture medium (Invitrogen) containing 10% fetal bovine serum (Sanko Junyaku) for 2 hours at 37° C. under the condition of 5% CO2. For 1 well, 2 μL of Lipofectamine 2000 was diluted in 50 μL of OPTI-MEM (Invitrogen) and allowed to stand at room temperature for 7 minutes (hereinafter referred to as Lipo2000-OPTI). For 1 well, 0.8 μg of human URAT1 expression vector was diluted in 50 μL of OPTI-MEM (Invitrogen) and combined gently with Lipo2000-OPTI. After standing at room temperature for 25 minutes, the mixture was added to COS7 cells at 100 μL/well. Furthermore, COS7 cells were cultured for 2 days at 37° C. under the condition of 5% CO2 and used for measuring inhibitory activity on the uptake.
(2) Preparation of Test Compounds
Test compounds were dissolved in DMSO (Wako) at 10 mM concentration and then diluted to 2 times higher concentration than intended with pre-treatment buffer (125 mM sodium gluconate, 4.8 mM potassium gluconate, 1.2 mM potassium dihydrogen phosphate, 1.2 mM magnesium sulfate, 1.3 mM calcium gluconate, 5.6 mM glucose, 25 mM Hepes, pH 7.4). Pre-treatment buffer without test compounds was used for control. In addition, an equal volume of pre-treatment buffer containing ^14C-labeled uric acid (American Radiolabeled Chemicals, Inc.) was added to test compounds and control, and finally assay buffer including 20 μM uric acid was prepared.
(3) Method for Measurement
All tests were performed on hot-plate at 37° C. Pre-treatment buffer and assay buffer were incubated at 37° C. and then used for assays. Medium was removed from plates, and 700 μL of pre-treatment buffer was added, and the cells were pre-incubated for 10 minutes. After repeating same step, pre-treatment buffer was removed, and assay buffer was added at 400 μL/well. The uptake reaction was carried out for 5 minutes. After terminating the reaction, assay buffer was rapidly removed, and the cells were washed twice with addition of ice-cold pre-treatment buffer at 1.2 mL/well. Then, the cells were lysed by addition of 0.2N sodium hydroxide at 300 μL/well. The lysed solutions were transferred into Picoplate (PerkinElmer), and Microscinti 40 (PerkinElmer) was added at 600 μL/well. After mixing, the radioactivity was counted in a liquid scintillation counter (PerkinElmer). The radioactivity in COS7 cells not transfected with URAT1 expression vector was also counted under the same condition as control. […] As a result, it was shown that all Examples 2, 6, 7, 12, 13, 15, 22 and 31 have over 80% inhibition in a concentration of 100 μM. Percent inhibition (%)=[1−(B−C)/(A−C)]×100 A: Radioactivity in control B: Radioactivity in the case of addition of test compounds C: Radioactivity in COST cells not transfected with URAT1 expression vector

T1 sequence (P80457 whole entry): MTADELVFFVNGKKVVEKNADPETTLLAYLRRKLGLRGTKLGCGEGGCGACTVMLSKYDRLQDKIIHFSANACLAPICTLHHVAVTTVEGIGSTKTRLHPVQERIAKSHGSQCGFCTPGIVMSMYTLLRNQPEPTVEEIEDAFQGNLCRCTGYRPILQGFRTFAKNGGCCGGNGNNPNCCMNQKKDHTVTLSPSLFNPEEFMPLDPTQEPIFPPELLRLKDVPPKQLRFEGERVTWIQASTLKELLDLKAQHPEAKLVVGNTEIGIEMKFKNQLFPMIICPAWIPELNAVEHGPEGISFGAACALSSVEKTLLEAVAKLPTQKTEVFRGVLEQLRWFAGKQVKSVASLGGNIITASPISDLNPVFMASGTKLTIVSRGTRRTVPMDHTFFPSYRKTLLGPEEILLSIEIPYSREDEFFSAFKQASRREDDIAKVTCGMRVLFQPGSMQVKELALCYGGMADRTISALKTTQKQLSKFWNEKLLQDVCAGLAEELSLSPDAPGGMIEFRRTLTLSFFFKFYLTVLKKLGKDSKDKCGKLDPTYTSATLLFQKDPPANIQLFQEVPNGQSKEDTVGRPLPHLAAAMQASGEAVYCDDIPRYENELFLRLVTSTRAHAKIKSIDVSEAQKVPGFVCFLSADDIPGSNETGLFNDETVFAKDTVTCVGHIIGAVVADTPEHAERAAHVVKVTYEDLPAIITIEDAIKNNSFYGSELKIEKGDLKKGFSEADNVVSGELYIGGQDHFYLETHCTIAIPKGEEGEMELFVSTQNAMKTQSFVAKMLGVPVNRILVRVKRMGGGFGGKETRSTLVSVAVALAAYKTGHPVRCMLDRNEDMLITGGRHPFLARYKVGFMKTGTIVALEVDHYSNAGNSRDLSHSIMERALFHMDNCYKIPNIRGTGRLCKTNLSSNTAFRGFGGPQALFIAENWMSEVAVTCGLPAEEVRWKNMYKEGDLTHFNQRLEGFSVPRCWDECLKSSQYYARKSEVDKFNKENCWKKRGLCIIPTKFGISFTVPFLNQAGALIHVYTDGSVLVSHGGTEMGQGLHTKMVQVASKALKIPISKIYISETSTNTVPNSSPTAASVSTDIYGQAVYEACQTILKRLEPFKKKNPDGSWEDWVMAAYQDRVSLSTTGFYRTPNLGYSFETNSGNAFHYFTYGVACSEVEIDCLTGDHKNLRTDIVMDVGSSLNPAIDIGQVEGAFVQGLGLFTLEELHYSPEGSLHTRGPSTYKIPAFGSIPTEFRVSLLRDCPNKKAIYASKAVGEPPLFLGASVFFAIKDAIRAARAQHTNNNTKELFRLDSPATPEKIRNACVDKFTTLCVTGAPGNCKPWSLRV

Row | IC50 [1] [nM] | inhibition at 100 µM (human URAT1) [%] | SMILES
1 | 4 | > 80 | Cc1nc(-c2cc(C#N)c3ccc(F)cc3c2)sc1C(=O)O [Example 12]
2 | 8 | > 80 | Cc1nc(-c2cc(C#N)c3cccc(F)c3c2)sc1C(=O)O [Example 13]
3 | 7 | > 80 | Cc1nc(-c2cc(C#N)c3c(C)ccc(F)c3c2)sc1C(=O)O [Example 15]
4 | 7 | > 80 | Cc1nc(-c2cc(C#N)c3c(F)cccc3c2)sc1C(=O)O [Example 22]
5 | 2 | > 80 | N#Cc1cc(-c2ncc(C(=O)O)s2)cc2ccccc12 [Example 31]

The remaining lines, values behind:

Row | SMILES | IC50 [1] [nM] | inhibition at 100 µM (human URAT1) [%]
6 | N#Cc1cc(-c2cc(C(=O)O)ccn2)cc2ccccc12 [Example 1, 2-(4-Cyanonaphthalene-2-yl)isonicotinic acid] | 11 | –
7 | N#Cc1cc(-c2cc(C(=O)O)c(O)cn2)cc2ccccc12 [Example 2, 2-(4-Cyanonaphthalene-2-yl)-5-hydroxyisonicotinic acid] | 13 | > 80
8 | N#Cc1cc(-c2ccc(C(=O)O)cc2)cc2ccccc12 [Example 4, 4-(4-Cyanonaphthalene-2-yl)benzoic acid] | 20 | –
9 | N#Cc1cc(-c2ccc(C(=O)O)cc2)nc2ccccc12 [Example 5, 4-(4-Cyanoquinoline-2-yl)benzoic acid] | 81 | –
10 | N#Cc1cc(-c2ccc(C(=O)O)c(O)c2)nc2ccccc12 [Example 6, 4-(4-Cyanoquinoline-2-yl)-2-hydroxy-benzoic acid] | 8 | > 80
11 | Cc1nc(-c2cc(C#N)c3ccccc3c2)sc1C(=O)O [Example 7, 2-(4-Cyanonaphthalene-2-yl)-4-methylthiazole-5-carboxylic acid] | 7 | > 80
12 | Cc1ccc2cc(-c3nc(C)c(C(=O)O)s3)cc(C#N)c2c1 [Example 8, 2-(4-Cyano-6-methylnaphthalene-2-yl)-4-methylthiazole-5-carboxylic acid] | 11 | –
13 | Cc1ccc2c(C#N)cc(-c3nc(C)c(C(=O)O)s3)cc2c1 [Example 9] | 26 | –
